Experimental data reported in the supplement of paper PMC11451515.

System: NOMO1
Assay: cell viability relative to DMSO control; higher = less cytotoxic
Settings: 48 h
Method in brief: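 NOMO1 or SEM (500 cells/well) or P12-Ichikawa (1000 cells/well) leukemia cells were adapted for at least four passages in each medium. They were seeded in 1536-well plates (5 μl) and pin-dosed with library compounds in DMSO over an 11-point threefold series, 47 μM to 0.79 nM. CellTiter-Glo One luminescence was read after 48 h at 37°C. Viability is the per-plate percentage relative to DMSO wells, with cell-free wells as background.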

[1] = HPLM + 10% dialyzed FBS, 0.000781 µM
[2] = HPLM + 10% dialyzed FBS, 0.00234 µM
[3] = HPLM + 10% dialyzed FBS, 0.00702 µM
[4] = HPLM + 10% dialyzed FBS, 0.0211 µM
[5] = HPLM + 10% dialyzed FBS, 0.0632 µM
[6] = HPLM + 10% dialyzed FBS, 0.19 µM
[7] = HPLM + 10% dialyzed FBS, 0.569 µM
[8] = HPLM + 10% dialyzed FBS, 1.71 µM
[9] = HPLM + 10% dialyzed FBS, 5.12 µM
[10] = HPLM + 10% dialyzed FBS, 15.4 µM
[11] = HPLM + 10% dialyzed FBS, 46.1 µM
[12] = RPMI 5 mM glucose + 10% FBS, 0.000781 µM
[13] = RPMI 5 mM glucose + 10% FBS, 0.00234 µM
[14] = RPMI 5 mM glucose + 10% FBS, 0.00702 µM
[15] = RPMI 5 mM glucose + 10% FBS, 0.0211 µM
[16] = RPMI 5 mM glucose + 10% FBS, 0.0632 µM
[17] = RPMI 5 mM glucose + 10% FBS, 0.19 µM
[18] = RPMI 5 mM glucose + 10% FBS, 0.569 µM
[19] = RPMI 5 mM glucose + 10% FBS, 1.71 µM
[20] = RPMI 5 mM glucose + 10% FBS, 5.12 µM
[21] = RPMI 5 mM glucose + 10% FBS, 15.4 µM
[22] = RPMI 5 mM glucose + 10% FBS, 46.1 µM
[23] = RPMI 5 mM glucose + 10% dialyzed FBS, 0.000781 µM
[24] = RPMI 5 mM glucose + 10% dialyzed FBS, 0.00234 µM
[25] = RPMI 5 mM glucose + 10% dialyzed FBS, 0.00702 µM
[26] = RPMI 5 mM glucose + 10% dialyzed FBS, 0.0211 µM
[27] = RPMI 5 mM glucose + 10% dialyzed FBS, 0.0632 µM
[28] = RPMI 5 mM glucose + 10% dialyzed FBS, 0.19 µM
[29] = RPMI 5 mM glucose + 10% dialyzed FBS, 0.569 µM
[30] = RPMI 5 mM glucose + 10% dialyzed FBS, 1.71 µM
[31] = RPMI 5 mM glucose + 10% dialyzed FBS, 5.12 µM
[32] = RPMI 5 mM glucose + 10% dialyzed FBS, 15.4 µM
[33] = RPMI 5 mM glucose + 10% dialyzed FBS, 46.1 µM

## C[C@]12CC[C@H]3[C@@H](CC[C@@]45O[C@@H]4C(O)=C(C#N)C[C@]35C)[C@@H]1CC[C@@H]2O
[1]
  cell viability: 102%
[2]
  cell viability: 111%
[3]
  cell viability: 118%
[4]
  cell viability: 112%
[5]
  cell viability: 123%
[6]
  cell viability: 111%
[7]
  cell viability: 110%
[8]
  cell viability: 116%
[9]
  cell viability: 97.2%
[10]
  cell viability: 109%
[11]
  cell viability: 21.2%
[12]
  cell viability: 111%
[13]
  cell viability: 119%
[14]
  cell viability: 117%
[15]
  cell viability: 127%
[16]
  cell viability: 117%
[17]
  cell viability: 119%
[18]
  cell viability: 128%
[19]
  cell viability: 118%
[20]
  cell viability: 117%
[21]
  cell viability: 117%
[22]
  cell viability: 30.7%
[23]
  cell viability: 110%
[24]
  cell viability: 121%
[25]
  cell viability: 127%
[26]
  cell viability: 132%
[27]
  cell viability: 143%
[28]
  cell viability: 132%
[29]
  cell viability: 128%
[30]
  cell viability: 135%
[31]
  cell viability: 136%
[32]
  cell viability: 125%
[33]
  cell viability: 24.3%

## O=C(O)c1cccnc1
[1]
  cell viability: 121%
[2]
  cell viability: 114%
[3]
  cell viability: 130%
[4]
  cell viability: 118%
[5]
  cell viability: 115%
[6]
  cell viability: 123%
[7]
  cell viability: 107%
[8]
  cell viability: 85.2%
[9]
  cell viability: 49.4%
[10]
  cell viability: 27.4%
[11]
  cell viability: 13.2%
[12]
  cell viability: 121%
[13]
  cell viability: 123%
[14]
  cell viability: 121%
[15]
  cell viability: 102%
[16]
  cell viability: 124%
[17]
  cell viability: 116%
[18]
  cell viability: 112%
[19]
  cell viability: 101%
[20]
  cell viability: 85%
[21]
  cell viability: 23.7%
[22]
  cell viability: 14.4%
[23]
  cell viability: 116%
[24]
  cell viability: 117%
[25]
  cell viability: 116%
[26]
  cell viability: 117%
[27]
  cell viability: 118%
[28]
  cell viability: 122%
[29]
  cell viability: 117%
[30]
  cell viability: 98.6%
[31]
  cell viability: 61.5%
[32]
  cell viability: 22.1%
[33]
  cell viability: 10%

## COc1cccc(N(C)C(=S)Oc2ccc3c(c2)CCCC3)n1
[1]
  cell viability: 93.3%
[2]
  cell viability: 95.6%
[3]
  cell viability: 118%
[4]
  cell viability: 89.1%
[5]
  cell viability: 111%
[6]
  cell viability: 102%
[7]
  cell viability: 101%
[8]
  cell viability: 110%
[9]
  cell viability: 108%
[10]
  cell viability: 102%
[11]
  cell viability: 99.6%
[12]
  cell viability: 85.4%
[13]
  cell viability: 88.1%
[14]
  cell viability: 87%
[15]
  cell viability: 82.2%
[16]
  cell viability: 103%
[17]
  cell viability: 90.8%
[18]
  cell viability: 91%
[19]
  cell viability: 88.1%
[20]
  cell viability: 103%
[21]
  cell viability: 92.2%
[22]
  cell viability: 105%
[23]
  cell viability: 82.3%
[24]
  cell viability: 98.9%
[25]
  cell viability: 94%
[26]
  cell viability: 84%
[27]
  cell viability: 99.5%
[28]
  cell viability: 97.7%
[29]
  cell viability: 103%
[30]
  cell viability: 94.2%
[31]
  cell viability: 105%
[32]
  cell viability: 108%
[33]
  cell viability: 101%

## CCCCN1CCC(CNC(=O)c2c3n(c4ccccc24)CCCO3)CC1
[1]
  cell viability: 104%
[2]
  cell viability: 107%
[3]
  cell viability: 111%
[4]
  cell viability: 115%
[5]
  cell viability: 112%
[6]
  cell viability: 114%
[7]
  cell viability: 132%
[8]
  cell viability: 123%
[9]
  cell viability: 125%
[10]
  cell viability: 110%
[11]
  cell viability: 89.4%
[12]
  cell viability: 95.8%
[13]
  cell viability: 98.5%
[14]
  cell viability: 103%
[15]
  cell viability: 111%
[16]
  cell viability: 118%
[17]
  cell viability: 109%
[18]
  cell viability: 117%
[19]
  cell viability: 106%
[20]
  cell viability: 108%
[21]
  cell viability: 117%
[22]
  cell viability: 90.5%
[23]
  cell viability: 96.5%
[24]
  cell viability: 110%
[25]
  cell viability: 105%
[26]
  cell viability: 114%
[27]
  cell viability: 110%
[28]
  cell viability: 106%
[29]
  cell viability: 117%
[30]
  cell viability: 104%
[31]
  cell viability: 113%
[32]
  cell viability: 124%
[33]
  cell viability: 90.1%

## O=C1c2ccccc2-c2n[nH]c3cccc1c23
[1]
  cell viability: 109%
[2]
  cell viability: 131%
[3]
  cell viability: 103%
[4]
  cell viability: 111%
[5]
  cell viability: 123%
[6]
  cell viability: 120%
[7]
  cell viability: 92.5%
[8]
  cell viability: 122%
[9]
  cell viability: 102%
[10]
  cell viability: 53.6%
[11]
  cell viability: 28.3%
[12]
  cell viability: 90.6%
[13]
  cell viability: 105%
[14]
  cell viability: 110%
[15]
  cell viability: 113%
[16]
  cell viability: 102%
[17]
  cell viability: 127%
[18]
  cell viability: 113%
[19]
  cell viability: 107%
[20]
  cell viability: 117%
[21]
  cell viability: 53.7%
[22]
  cell viability: 18.2%
[23]
  cell viability: 101%
[24]
  cell viability: 107%
[25]
  cell viability: 98.3%
[26]
  cell viability: 114%
[27]
  cell viability: 116%
[28]
  cell viability: 115%
[29]
  cell viability: 120%
[30]
  cell viability: 108%
[31]
  cell viability: 94.2%
[32]
  cell viability: 94.9%
[33]
  cell viability: 23.9%

## COc1cc(C[C@@H](CO)[C@H](CO)Cc2ccc(O)c(OC)c2)ccc1O
[1]
  cell viability: 97.7%
[2]
  cell viability: 99.3%
[3]
  cell viability: 97.2%
[4]
  cell viability: 123%
[5]
  cell viability: 112%
[6]
  cell viability: 122%
[7]
  cell viability: 126%
[8]
  cell viability: 108%
[9]
  cell viability: 107%
[10]
  cell viability: 101%
[11]
  cell viability: 104%
[12]
  cell viability: 107%
[13]
  cell viability: 118%
[14]
  cell viability: 101%
[15]
  cell viability: 111%
[16]
  cell viability: 103%
[17]
  cell viability: 108%
[18]
  cell viability: 106%
[19]
  cell viability: 97.2%
[20]
  cell viability: 104%
[21]
  cell viability: 94.4%
[22]
  cell viability: 102%
[23]
  cell viability: 95.8%
[24]
  cell viability: 111%
[25]
  cell viability: 113%
[26]
  cell viability: 107%
[27]
  cell viability: 118%
[28]
  cell viability: 110%
[29]
  cell viability: 107%
[30]
  cell viability: 107%
[31]
  cell viability: 104%
[32]
  cell viability: 103%
[33]
  cell viability: 112%

## Cc1nnc(C(=O)NC(C)(C)c2nc(C(=O)NCc3ccc(F)cc3)c(O)c(=O)n2C)o1
[1]
  cell viability: 121%
[2]
  cell viability: 112%
[3]
  cell viability: 119%
[4]
  cell viability: 118%
[5]
  cell viability: 104%
[6]
  cell viability: 103%
[7]
  cell viability: 106%
[8]
  cell viability: 101%
[9]
  cell viability: 95.6%
[10]
  cell viability: 97.9%
[11]
  cell viability: 96.6%
[12]
  cell viability: 87.6%
[13]
  cell viability: 99.4%
[14]
  cell viability: 96.8%
[15]
  cell viability: 92.4%
[16]
  cell viability: 96.7%
[17]
  cell viability: 99.1%
[18]
  cell viability: 100%
[19]
  cell viability: 91.2%
[20]
  cell viability: 86.5%
[21]
  cell viability: 92.2%
[22]
  cell viability: 93.3%
[23]
  cell viability: 93.7%
[24]
  cell viability: 100%
[25]
  cell viability: 107%
[26]
  cell viability: 93.1%
[27]
  cell viability: 109%
[28]
  cell viability: 96.6%
[29]
  cell viability: 95%
[30]
  cell viability: 96.8%
[31]
  cell viability: 93.7%
[32]
  cell viability: 104%
[33]
  cell viability: 94.5%

## C/C1=C/C(=C(/CNC(=O)C2=CC(=CC3=C2C=N[N]3C4CCCC4)C5=CC=C(CN6CCOCC6)C=C5)C(=O)N1)C
[12]
  cell viability: 110%
[13]
  cell viability: 125%
[14]
  cell viability: 118%
[15]
  cell viability: 120%
[16]
  cell viability: 132%
[17]
  cell viability: 127%
[18]
  cell viability: 127%
[19]
  cell viability: 124%
[20]
  cell viability: 104%
[21]
  cell viability: 117%
[22]
  cell viability: 22%
[23]
  cell viability: 124%
[24]
  cell viability: 118%
[25]
  cell viability: 128%
[26]
  cell viability: 123%
[27]
  cell viability: 125%
[28]
  cell viability: 111%
[29]
  cell viability: 131%
[30]
  cell viability: 125%
[31]
  cell viability: 125%
[32]
  cell viability: 112%
[33]
  cell viability: 13.5%
